Data from patent US7276519B2, “Thieno[3,2-b]pyridine-6-carbonitriles and thieno[2,3-b]pyridine-5-carbonitriles as protein kinase inhibitors” (Wyeth, priority 2002, dated 2007).
Read-outs that look alike come from different tables or passages of the source.

Assays:
[1] = test system: Rat2 fibroblasts stably transformed with v-Src/Hu c-Src fusion gene; test: Anchorage independent Src-transformed fibroblast proliferation assay; format: cell-based, rat; details: for IC50: suspension growth, MTS readout Day 5, read-out: Src cells IC50; for inhibition at 100 µM: read-out: Src cells % inh at 100 μM
Description: Anchorage Independent Src-Transformed Fibroblast Proliferation Assay Rat2 fibroblasts stably transformed with a plasmid containing a CMV promotor controlled v-Src/Hu c-Src fusion gene in which the catalytic domain of human c-Src was inserted in place of the v-Src catalytic domain in the v-Src gene are used for the measurement of src dependent suspension growth. […] Multiple entries for a given compound indicate that it was tested multiple times.

[2] = Rattus norvegicus, Rat2, 120 h, Table 1
[3] = Rattus norvegicus, Rat2, Table 1, at 100 μM

Row | SMILES | melting point | IC50 [1, 2] [µM] | other results
1 | COc1cc(Nc2c(C#N)cnc3cc(-c4ccc(C=O)cc4)sc23)c(Cl)cc1Cl [Example 14, 7-[(2,4-Dichloro-5-methoxyphenyl)amino]-2-(4-formylphenyl)thieno[3,2-b]pyridine-6-carbonitrile] | 261 to 262 °C | 0.66 | –
2 | COc1cc(Nc2c(C#N)cnc3cc(-c4ccc(CO)cc4)sc23)c(Cl)cc1Cl [Example 41, 7-[(2,4-Dichloro-5-methoxyphenyl)amino]-2-[4-(hydroxymethyl)phenyl]thieno[3,2-b]pyridine-6-carbonitrile] | 239 to 240 °C | 0.56 | –
3 | COc1cc(Nc2c(C#N)cnc3sc(CCCCO)cc23)cc(OC)c1OC [Example 30, 2-(4-Hydroxybutyl)-4-[(3,4,5-trimethoxyphenyl)amino]-thieno[2,3-b]pyridine-5-carbonitrile] | 125 to 127 °C | 23 | IC50 ([1]; Table 1): 25 µM
4 | COc1cc(Nc2c(C#N)cnc3cc(-c4cc5ccccc5o4)sc23)c(Cl)cc1Cl [Example 24, 2-(1-Benzofuran-2-yl)-7-[(2,4-dichloro-5-methoxyphenyl)amino]thieno[3,2-b]pyridine-6-carbonitrile] | 281 to 282 °C | 3.8 | –
5 | COc1cc(Nc2c(C#N)cnc3cc(-c4ccc(C(N)=O)cc4)sc23)c(Cl)cc1Cl [Example 20, 4-{6-Cyano-7-[(2,4-dichloro-5-methoxyphenyl)amino]thieno[3,2-b]pyridine-2-yl}benzamide] | > 300 °C | 1 | –
6 | COc1cc(Nc2c(C#N)cnc3sc(C)cc23)c(Cl)cc1Cl [Example 8, 4-[(2,4-Dichloro-5-methoxyphenyl)amino]-2-methylthieno[2,3-b]pyridine-5-carbonitrile] | 179 to 181 °C | – | inhibition at 10 µM ([1]; Rattus norvegicus, Rat2, Table 1, at 10 μM, read-out: Src cells % inh at 10 μM): 33%
7 | N#Cc1cnc2cc(-c3ccc(C=O)cc3)sc2c1Nc1ccc(Oc2ccccc2)cc1 [Example 43, 2-(4-Formylphenyl)-7-[(4-phenoxyphenyl)amino]thieno[3,2-b]pyridine-6-carbonitrile] | 230 to 232 °C | – | inhibition at 100 µM [1, 3]: 4%
8 | COc1cc(Nc2c(C#N)cnc3cc(C#CCN(C)C)sc23)c(Cl)cc1Cl [Example 23, 7-[(2,4-Dichloro-5-methoxyphenyl)amino]-2-[3-(dimethylamino)prop-1-ynyl]thieno[3,2-b]pyridine-6-carbonitrile] | 164 to 166 °C | 5.6 | –
9 | CN1CCN(Cc2ccc(-c3cc4ncc(C#N)c(Nc5ccc(Oc6ccccc6)cc5)c4s3)cc2)CC1 [Example 44, 2-[4-(4-Methylpiperazin-1-ylmethyl)phenyl]-7-[(4-phenoxyphenyl)amino]thieno[3,2-b]pyridine-6-carbonitrile] | 199 to 201 °C | 2.4 | –
10 | COc1cc(Nc2c(C#N)cnc3cc(C#Cc4cccnc4)sc23)c(Cl)cc1Cl [Example 35, 7-[(2,4-Dichloro-5-methoxyphenyl)amino]-2-(pyridin-3-ylethynyl)thieno[3,2-b]pyridine-6-carbonitrile] | 249 to 250 °C | 0.98 | –
11 | COc1cc(Nc2c(C#N)cnc3cc(C)sc23)c(Cl)cc1Cl [Example 9, 7-[(2,4-Dichloro-5-methoxyphenyl)amino]-2-methylthieno[3,2-b]pyridine-6-carbonitrile] | 213 to 214 °C | 20 | –
12 | COc1ccc(C#Cc2cc3ncc(C#N)c(Nc4cc(OC)c(Cl)cc4Cl)c3s2)cc1 [Example 21, 7-[(2,4-Dichloro-5-methoxyphenyl)amino]-2-[(4-methoxyphenyl)ethynyl]thieno[3,2-b]pyridine-6-carbonitrile] | 249 to 250 °C | 32 | –
13 | COc1cc(Nc2c(C#N)cnc3cc(C#Cc4ccncc4)sc23)c(Cl)cc1Cl [Example 34, 7-[(2,4-Dichloro-5-methoxyphenyl)amino]-2-(pyridin-4-ylethynyl)thieno[3,2-b]pyridine-6-carbonitrile] | 221 to 223 °C | 8.6 | –
14 | COc1cc(Nc2c(C#N)cnc3cc(-c4ccc(CN5CCN(C)CC5)cc4)sc23)c(Cl)cc1Cl [Example 16, 7-[(2,4-Dichloro-5-methoxyphenyl)amino]-2-[4-(4-methylpiperazin-1-ylmethyl)phenyl]thieno[3,2-b]pyridine-6-carbonitrile] | 226 to 228 °C | – | –
15 | COc1cc(Nc2c(C#N)cnc3cc(-c4csc(C=O)c4)sc23)c(Cl)cc1Cl [Example 37, 7-[(2,4-Dichloro-5-methoxyphenyl)amino]-2-(5-formylthien-3-yl)thieno[3,2-b]pyridine-6-carbonitrile] | 259 to 261 °C | 1.1 | –
16 | COc1cc(Nc2c(C#N)cnc3sc(-c4ccc(CN5CCOCC5)cc4)cc23)c(Cl)cc1Cl | 106 to 108 °C | – | –
17 | COc1cc(Nc2c(C#N)cnc3cc(C#CCN4CCN(C)CC4)sc23)c(Cl)cc1Cl | 172 to 173 °C | – | –
18 | COC(=O)CCCc1cc2c(Nc3cc(OC)c(OC)c(OC)c3)c(C#N)cnc2s1 [Example 29, 4-[5-Cyano-4-(3,4,5-trimethoxyphenylamino)-thieno[2,3-b]pyridin-2-yl]-butyric acid methyl ester] | 101 to 103 °C | – | –
19 | COc1cc(Nc2c(C#N)cnc3cc(/C=C/C(=O)O)sc23)c(Cl)cc1Cl [Example 53, (2E)-3-(6-Cyano-7-[(2,4-dichloro-5-methoxyphenyl)amino]thieno[3,2-b]pyridin-2-yl)prop-2-enoate] | – | – | Src cells % inh at 100 μM ([1]; Table 1, at 100 μM): 45%
20 | COc1cc(Nc2c(C#N)cnc3sc(CCCCN4CCOCC4)cc23)cc(OC)c1OC [Example 31, 2-[4-(4-Morpholinyl)butyl]-4-[(3,4,5-trimethoxyphenyl)amino]-thieno[2,3-b]pyridine-5-carbonitrile] | – | 35 | –

The next lines start with results.

Row | melting point | SMILES | IC50 [1, 2] [µM] | other results
21 | 254 to 256 °C | COc1cc(Nc2c(C#N)cnc3cc(I)sc23)cc(OC)c1OC [Example 47, 2-Iodo-7-[(3,4,5-trimethoxyphenyl)amino]thieno[3,2-b]pyridine-6-carbonitrile] | – | inhibition at 100 µM [1, 3]: 74%
22 | 225 to 228 °C | N#Cc1cnc2cc(-c3ccc(CO)cc3)sc2c1Nc1ccc(Oc2ccccc2)cc1 [Example 46, 2-[4-(Hydroxymethyl)phenyl]-7-[(4-phenoxyphenyl)amino]thieno[3,2-b]pyridine-6-carbonitrile] | – | inhibition at 100 µM [1, 3]: 26%
23 | 265 to 266 °C | COc1cc(Nc2c(C#N)cnc3c(Br)csc23)c(Cl)cc1Cl [Example 139, 3-Bromo-7-[(2,4-dichloro-5-methoxyphenyl)amino]thieno[3,2-b]pyridine-6-carbonitrile] | – | –
24 | 180 to 182 °C | COc1cc(Nc2c(C#N)cnc3cc(C#CCN4CCN(C)CC4)sc23)cc(OC)c1OC [Example 57, 2-[3-(4-Methylpiperazin-1-yl)prop-1-ynyl]-7-[(3,4,5-trimethoxyphenyl)amino]thieno[3,2-b]pyridine-6-carbonitrile] | – | inhibition at 100 µM [1, 3]: 70%
25 | 230 to 233 °C | N#Cc1cnc2cc(I)sc2c1Nc1ccc(Cl)cc1Cl [Example 102, 7-[(2,4-dichlorophenyl)amino]-2-iodothieno[3,2-b]pyridine-6-carbonitrile] | – | –
26 | 170 to 171 °C | N#Cc1cnc2cc(-c3ccc(C=O)cc3)sc2c1Nc1ccc(Cl)cc1Cl [Example 115, 7-[(2,4-dichlorophenyl)amino]-2-(4-formylphenyl)thieno[3,2-b]pyridine-6-carbonitrile] | – | –
27 | 175 °C (dec.) | COc1cc(Nc2c(C#N)cnc3sc(C#CCN4CCN(C)CC4)cc23)c(Cl)cc1Cl [Example 51, 4-[(2,4-Dichloro-5-methoxyphenyl)amino]-2-[3-(4-methylpiperazin-1-yl)prop-1-ynyl]thieno[2,3-b]pyridine-5-carbonitrile] | 9.9 | –
28 | 239 to 241 °C | CN(C)c1ccc(-c2cc3ncc(C#N)c(Nc4ccc(Cl)cc4Cl)c3s2)cc1 [Example 126, 7-[(2,4-dichlorophenyl)amino]-2-[4-(dimethylamino)phenyl]thieno[3,2-b]pyridine-6-carbonitrile] | – | –
29 | 223 to 224 °C | COc1cc(Nc2c(C#N)cnc3cc(-c4coc(C=O)c4)sc23)c(Cl)cc1Cl [Example 138, 7-[(2,4-dichloro-5-methoxyphenyl)amino]-2-(5-formyl-3-furyl)thieno[3,2-b]pyridine-6-carbonitrile] | – | –
30 | 290 to 291 °C | Cn1ccnc1Sc1ccc(Nc2c(C#N)cnc3cc(I)sc23)cc1Cl [Example 82, 7-({3-chloro-4-[(1-methyl-1H-imidazol-2-yl)thio]phenyl}amino)-2-iodothieno[3,2-b]pyridine-6-carbonitrile] | – | –
31 | 128 to 130 °C | COc1cc(Nc2c(C#N)cnc3cc(-c4ccsc4C=O)sc23)c(Cl)cc1Cl [Example 78, 7-[(2,4-dichloro-5-methoxyphenyl)amino]-2-(2-formylthien-3-yl)thieno[3,2-b]pyridine-6-carbonitrile] | – | –
32 | 202 to 204 °C | COc1cc(N(C(C)=O)c2c(C#N)cnc3ccsc23)c(Cl)cc1Cl [Example 63, N-(6-Cyanothieno[3,2-b]pyridin-7-yl)-N-(2,4-dichloro-5-methoxyphenyl)acetamide] | – | –
33 | 232 to 233 °C | CCOc1cc(Nc2c(C#N)cnc3cc(I)sc23)c(Cl)cc1Cl [Example 110, 7-[(2,4-dichloro-5-ethoxyphenyl)amino]-2-iodothieno[3,2-b]pyridine-6-carbonitrile] | – | –
34 | 279 to 281 °C | Cn1ccnc1Sc1ccc(Nc2c(C#N)cnc3cc(-c4ccc(C=O)cc4)sc23)cc1Cl [Example 97, 7-({3-chloro-4-[(1-methyl-1H-imidazol-2-yl)thio]phenyl}amino)-2-(4-formylphenyl)thieno[3,2-b]pyridine-6-carbonitrile] | – | –
